In patent publication US20210000730A1, “COMPOSITION COMPRISING OPTICAL CLEARING AGENT FOR IMPROVING OPTICAL CHARACTERISTIC OF SKIN” (LG HOUSEHOLD & HEALTH CARE LTD., priority 2018, published 2021):
“Also recorded” adds a separate entry of the source.

Test system: corneum of subjects collected using corneum tape
Assay: Reduction of light scattering of corneum tape, dark field image of polarization microscope with image analysis
Settings: washed and dried after 3~4 hours
Source text: The bright field image is a basic observation method of simply magnifying a sample without a unique optical unit and it is suitable for confirming the structure of the sample, but it is not appropriate for confirming the scattering light. The dark field image is an observation method of inducing the direct illumination light reaching the sample out, and collecting only the scattering light from the sample with objective lens, and the light from the upper light source of the microscope is scattered from the keratinocytes and appears white, and as the scattering decreases, it appears black.
The numerical value of the analyzed image is expressed in the range of 30-200, and the more the white image is, the higher the value is. The average value of the image numerical value of the unapplied site and the average value of the image numerical value of the applied site were obtained, and the reduction ratio of the image numerical value of the applied site compared to the unapplied site was calculated as a percentage.
On the other hand, to compare the effect of the present disclosure by relative values at the same concentration, the solution of urea, glycerol, sucrose, sodium lactate, polyethylene glycol 400 and hexanediol of the same concentration (10% by weight) was prepared and compared and evaluated (FIG. 3a). […]

NC(N)=O [urea]
reduction of light scattering compared to the control group (water) (10% of urea, 100 ul applied): 17%
light scattering of corneum after treatment, washing and drying (photograph, dark field image) (urea applied to corneum tape, control water): the scattering was reduced and it appeared transparent; also recorded: corneum scattering was reduced and appeared black
